In patent US9296710B2, “Bicyclo (3.1.0) hexane-2, 6-dicarboxylic acid derivatives as mGlu2 receptor agonist” (Eli Lilly and Company, priority 2011, dated 2016):
pEC50: −log10 of the molar value. Each block holds one compound with its values, some of them ahead of it.

Experiments:
[1] = both, human, pH 7.4
Protocol: Liver S9 fractions are obtained from Xenotech LLC (Lenexa, Mo.). The lot is from a pool of two donors, one male and one female. The liver S9 fraction is prepared and diluted using a homogenization buffer consisting of 50 mM Tris, pH 7.4 at 4° C. and 150 mM potassium chloride without EDTA. Prodrug compounds are incubated in the liver homogenate for 2 hours at 37° C., after which the concentration of compound is determined by LC/MS/MS. Hydrolysis of Clopidogrel to Clopidogrel Carboxylic Acid is utilized as an assay positive control.
Incubations are conducted in 96-well format and all prodrug compounds are run in duplicate on each day. Stock prodrug compound solutions are prepared in water at a concentration of 1 mM. Human liver S9 fraction is diluted to a final protein concentration of 0.5 mg/mL in 100 mM PBS buffer, pH 7.4. […]
LC/MS/MS quantification of compound formed during the incubation is performed on a Sciex API 4000, Analyst version 1.4.2, TURBOIONSPRAY®, positive ionization, and Selected Reaction Monitoring (SRM). […]
Concentrations of hydrolyzed compound in the incubation mixtures are determined from standard curves prepared by replicate two-fold dilution starting at 10 μM in 100 mM PBS pH 7.4 and subsequently quenched with methanol-internal standard solution identical to the samples. Averages and standard deviations are calculated using MICROSOFT® Office EXCEL® 2007. […]

human mGlu2 receptor = molecular target: T1, human mGlu2 receptor (Homo sapiens, UniProt Q14416); assay: Human mGlu2 Agonist FLIPR Assay; type: cell-based
T1 construct: expressed in transfected cells; host or cells: AV-12 cells (Syrian hamster fibroblasts), co-transfected with rat EAAT1 and Galpha15
Excerpt: AV-12 cell lines, derived from Syrian Hamster fibroblasts and stably expressing the human mGlu2 receptor and co-transfected with the rat glutamate transporter EAAT 1 (Excitatory Amino Acid Transporter 1) and the Gα15 subunit, are used for these studies. The expression of Gα15 allows Gi-coupled receptors to signal through the phospholipase C pathway, resulting in the ability to measure receptor activation by a fluorometric calcium response assay. The cell lines are maintained by culturing in Dulbecco's Modified Eagle's Medium (DMEM) with high glucose and pyridoxine hydrochloride supplemented with 5% dialyzed fetal bovine serum, 1 mM sodium pyruvate, 10 mM HEPES [4-(2-hydroxyethyl)-1-piperazineethanesulfonic acid], 1 mM of L-glutamine, and 5 μg/mL blasticidin (all media are purchased from Invitrogen). Confluent cultures are passaged biweekly using an enzyme-free dissociation solution (Chemicon S-004-B).
Intracellular calcium levels are monitored before and after the addition of compounds using a Fluorometric Imaging Plate Reader (FLIPR®, Molecular Devices). The assay buffer is comprised of Hank's Buffered Salt Solution (HBSS; Sigma) supplemented with 20 mM HEPES. […] The dye solution is removed and replaced with fresh assay buffer (50 μL per well). […] Results are analyzed using PRISM® v4.03 (GraphPad Software). […] Exemplified compounds of the present invention are solubilized as 10 mM stocks in 0.1N NaOH and stored at −20 C. They are diluted through a three-fold dilution series into assay buffer. After taking an initial 5-sec fluorescent read on the FLIPR® instrument, a compound of the present invention is added to the cell plate (50 μL per well). Data are collected every second for the first 30 seconds and then every 3 seconds for a total of 90 seconds in order to detect agonist activity. The maximal response is defined as that induced by ECmax (100 μM glutamate). The compound effect is measured as maximal minus minimal peak heights in relative fluorescent units (RFUs) corrected for basal fluorescence measured in the absence of glutamate. Determinations are carried out using single plates. Agonist effects are quantified as percent stimulation induced by compound alone relative to the maximal glutamate response. All data are calculated as relative EC50 values using a four-parameter logistic curve fitting program (ACTIVITY BASE® v5.3.1.22).

[2] = tested on: PCP-induced hyperlocomotor activity in rats; assay: Reversal of Phencyclidine (PCP)-Induced Hyperlocomotor Activity in Rats; type: in vivo; conditions: Rattus norvegicus
Excerpt: Administration of NMDA receptor antagonists, such as ketamine or phencyclidine (PCP), produces psychotomimetic-like effects in humans that are similar to those symptoms observed in patients with schizophrenia.
Motor activity is monitored by placing individual male, Sprague-Dawley (Harlan, Indianapolis, Ind.) rats in transparent, plastic shoe-box cages of the dimensions 45×25×20 cm, with 1 cm depth of wood chips as bedding, and a metal grill on top of the cage. Motor monitors (Kinder Scientific) consist of a rectangular rack of 12 photobeams arranged in an 8×4 formation, (or a high density grouping of 22 in a 15×7 pattern) at a height of 5 cm, with a second rack (for measuring rearing behaviors) at a height of 15 cm. The shoe box cage is placed inside of these racks, with the racks on a 3 foot high tabletop in an isolated room. […] On the test day, rats are placed in the test cage and allowed to acclimate for 30 minutes prior to PCP challenge; rats are monitored for an additional 60 minutes following PCP administration.
Data analysis and ED50 calculations are conducted using GraphPad PRISM® (San Diego, Calif. USA). Power analyses have determined that 8-10 rats per group are needed to have appropriate statistical power for detecting treatment differences (power=0.8). […]

[3] = tested on: stress-induced hyperthermia in rats; assay: Attenuation of Stress-Induced Hyperthermia in Rats; type: in vivo, rat; conditions: i.p.
Excerpt: In many anxiety disorders, hyperthermia occurs as part of the pathology and is considered a symptom of the disease. Compounds which attenuate stress-induced hyperthermia in animals are believed to be useful in treating anxiety disorders in humans. Generalized anxiety disorder is an example of such disorders that may be treated with such compounds. The conventional and minimally-invasive method for analyzing stress-induced hyperthermia is by measuring body temperature, and stress-induced increases in body temperature, via rectal thermometer. Male Fischer F-344 rats (Harlan, Indianapolis, Ind., USA) weighing between 275-350 g are tested. All animals are individually-housed with food and automated water available ad libitum, and maintained on a 12 h light/dark cycle (lights on at 06:00) Animals are fasted for approximately 12-18 hours before the experiment, which is conducted during the light phase. Rats are dosed one hour prior to the experiment by intraperitoneal (i.p.) route of administration in a dose volume of 1 mL/kg. The vehicle used was water with enough NaOH added to achieve a pH between 5-7. The mGluR5 antagonist MTEP (3-[(2-methyl-1,3-thiazol-4-yl)ethynyl]pyridine) and mGlu2/3 agonist LY317206 were used as quality controls, given that they produced reliable efficacy in this model Immediately following dosing, rats are returned to their home cage, and the experimenter turns off the lights and leaves the room. The dosing room is darkened for the remainder of the 1-hr pretreatment period.
After the pretreatment period, rats are taken individually to a brightly lit adjacent room where baseline body temperatures are determined by insertion of a rectal probe lubricated with mineral oil. Body temperature is assessed using a […] BAT-12® Microprobe Thermometer with a […] RET-2® rat rectal probe (Physitemp Instruments Inc., Clifton, N.J., USA). The probe is inserted approximately 2 cm into the rectum, to measure the core body temperature (this is the baseline body temperature, T1, in degrees Celsius). Ten minutes later a second body temperature measurement is recorded (T2). […]

T1 sequence (Q14416 19-872): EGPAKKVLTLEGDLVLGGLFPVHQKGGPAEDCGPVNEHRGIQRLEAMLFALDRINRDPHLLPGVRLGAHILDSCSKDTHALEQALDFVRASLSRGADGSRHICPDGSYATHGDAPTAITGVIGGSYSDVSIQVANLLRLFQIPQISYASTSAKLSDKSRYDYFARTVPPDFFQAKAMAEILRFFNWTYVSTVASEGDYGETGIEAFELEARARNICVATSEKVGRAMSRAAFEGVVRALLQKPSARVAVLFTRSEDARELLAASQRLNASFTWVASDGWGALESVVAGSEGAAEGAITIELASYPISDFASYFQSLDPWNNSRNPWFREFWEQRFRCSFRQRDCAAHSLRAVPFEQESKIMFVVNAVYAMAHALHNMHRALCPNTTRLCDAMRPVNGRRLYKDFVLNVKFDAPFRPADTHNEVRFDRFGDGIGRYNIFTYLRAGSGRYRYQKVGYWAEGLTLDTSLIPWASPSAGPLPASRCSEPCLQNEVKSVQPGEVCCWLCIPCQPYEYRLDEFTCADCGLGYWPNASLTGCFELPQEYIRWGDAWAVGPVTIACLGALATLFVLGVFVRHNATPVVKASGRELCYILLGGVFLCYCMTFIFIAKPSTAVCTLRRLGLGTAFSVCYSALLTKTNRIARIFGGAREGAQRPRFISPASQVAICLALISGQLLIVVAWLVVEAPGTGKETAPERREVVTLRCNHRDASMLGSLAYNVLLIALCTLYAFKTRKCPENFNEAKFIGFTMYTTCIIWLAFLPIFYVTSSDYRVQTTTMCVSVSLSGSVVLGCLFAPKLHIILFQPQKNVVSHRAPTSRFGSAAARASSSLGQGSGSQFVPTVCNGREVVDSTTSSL

Hydrolysis of Clopidogrel to Clopidogrel Carboxylic Acid (positive control) [1]: 73.0%
SMILES: COC(=O)[C@H](c1ccccc1Cl)N1CCc2sccc2C1 [Clopidogrel]

pEC50 (human mGlu2 receptor; hMGLUR2 FLIPR assay, AV-12 cells expressing human mGlu2, calcium response, read-out: Relative EC50): 7.16
Emax (human mGlu2 receptor; percent stimulation relative to maximal glutamate response (100 μM glutamate), read-out: Relative % Efficacy): 89%
SMILES: N[C@@]1(C(=O)O)C[C@H](Sc2nc[nH]n2)[C@H]2[C@H](C(=O)O)[C@H]21 [Example 10, (1R,2S,4S,5R,6R)-2-amino-4-(1H-1,2,4-triazol-3-ylsulfanyl)bicyclo[3.1.0]hexane-2,6-dicarboxylic acid]
ED50 ([2]; i.p. administration, 30 minutes prior to 5 mg/kg PCP): 0.9 mg/kg
maximal reduction of stress-induced hyperthermia ([3]; at 10 mg/kg): 75%
T35 (dose producing 35% reduction in stress-induced hyperthermic response) ([3]; one hour pretreatment): 1.7 mg/kg

SMILES: CSCC[C@H](N)C(=O)N[C@@]1(C(=O)O)C[C@H](Sc2nnc[nH]2)[C@H]2[C@H](C(=O)O)[C@H]21.Cl [Example 25, (1R,2S,4S,5R,6R)-2-(L-methionylamino)-4-(4H-1,2,4-triazol-3-ylsulfanyl) bicyclo[3.1.0] hexane-2,6-dicarboxylic acid hydrochloride]
ED50 ([2]; oral administration (prodrug), overnight fasted, 4 hours prior to 5 mg/kg PCP): 6.4 mg/kg
